Measured values as given in PMC7259638, “Characterization of the intestinal absorption of morroniside from Cornus officinalis Sieb. et Zucc via a Caco-2 cell monolayer model” (PLoS ONE, 2020).
Read-outs that look alike come from different tables or passages of the source.

Tests used:
[1] = set-up: method as in PMID 17596900, doi:10.1177/1934578X19856526; settings: rats; oral vs intravenous; cited from earlier work
[2] = Transport of morroniside across Caco-2 cell monolayers (bidirectional, concentration and pH); type: in vitro ADME, human; settings: human
Description: (§1) An initial stock solution of morroniside in methanol was prepared. The stock solution was then diluted with HBSS (pH = 7.4) and the final concentration of methanol in HBSS remained at 0.5%. […] Caco-2 cells were seeded at a density of 5 × 10^4 cells/cm^2 in a 12-well plate. The transepithelial electrical resistance (TEER) value was measured with a Millipore ERS voltameter (Burlington, MA, USA) in order to evaluate and determine monolayer integrity. The monolayers were ready for experiments 19 to 22 days after seeding.
(§2) During incubation, the culture medium was refreshed every other day. The culture medium was discarded, and 500 μL of HBSS was added to each well and incubated for 20 min at 37 °C. Afterward, each well was rinsed two times with HBSS at 37 °C. Three concentrations of morroniside (5, 25 and 100 μM) were added to either the apical (AP, 0.5 mL) or basolateral side (BL, 1.5 mL), wheras the receiving chamber contained the corresponding volume of blank HBSS medium (pH = 7.4). Incubation was performed at 37 °C for 180 min, with shaking at 50 rpm. To assess drug transport from the AP to BL side, after incubation for 5, 15, 30, 45, 60, 90, 120 or 180 min, 50 μL of the solution from the BL or AP side was collected, and replaced with an equal volume of HBSS. To study the effect of pH on morroniside (5, 25 and 100 μM) transport, the experiments were performed in HBSS, which was adjusted to pH 6.0 or pH 7.4 on the AP side depending on the experiment, and to pH 7.4 on the BL side at 37 °C.
(§3) UPLC-MS/MS data acquisition was performed using Analyst 1.5.2 and MultiQuant 2.1.1 software (Applied Biosystems). All data are shown as the mean ± standard deviation, n = 3. The data were analyzed using SPSS 20.0. In the Caco-2 cell model, the rate of transport was obtained from the amount transported versus the time curve using linear regression. The permeability coefficient of each compound was calculated using the following equation: Papp = (dQ/dt)/(A·C0).
(§4) where, dQ/dt is the rate of drug transport, C0 is the initial concentration of the compound in the donor chamber and A represents the surface area of the cell monolayer. The efflux ratio P was determined by calculating the ratio of Papp in the secretory (BA) direction divided by that in the absorptive (AB) direction, according to the following equation: P=PappBA/PappAB

Caco-2 cell monolayers = experiment: as above; type: in vitro ADME, human; settings: for PappAB AP-BL: AP to BL; for PappAB AP-BL / PappAB BL-AP: pH 7.4; for PappAB AP-BL / PappAB BL-AP / PappAB: 37 °C, n = 3; for PappAB BL-AP: BL to AP
Description: as §1, §2, §3, §4

MRP2 = experiment: Effects of influx/efflux transporter inhibitors and CO on morroniside transport in Caco-2 cell monolayers; type: in vitro ADME, human; settings: human, 25 μM morroniside
Description: as §1, §2
(§5) Efflux and influx transporters were investigated for their effects on the transport flux of morroniside. Several ATP-binding cassette transporter inhibitors, including one p-glycoprotein (P-gp) inhibitor (100μM verapamil); one multidrug resistance- related protein (MRP) inhibitor (100 μM, MK571), one multidrug resistance- related protein 3 (MRP3, the main BL MRP) inhibitor ([…]) and one multidrug resistance- related protein 2 (MRP2, the main AP MRP) inhibitor (200μM indomethacin); and one breast cancer resistance protein (BCRP) inhibitor (25μM apigenin) were used to determine the transporters involved in the efflux transport of morroniside. The inhibition of the influx transport of morroniside transport across the Caco-2 cell monolayer was investigated by the addition of 50 μM sodium vanadate and cimetidine to evaluate the selectivity of Na/K-ATPase. The pH and temperature conditions of this assay were 7.4 and 37 °C, respectively.
as §3, §4

[3] = as above; type: in vitro ADME, human; settings: human; for efflux ratio at 180 min, 25 μM: read-out: Efflux ratio P
Description: as §1, §2, §5, §3, §4

Caco-2 cells = experiment: MTT cytotoxicity assay; type: cell-based, human; settings: for Survival Rates (%, mean): Caco-2 cells, five replicates
Description: The conditions for Caco-2 cell culture have been described previously. Briefly, Caco-2 cells were cultured in a humidified atmosphere of 5% CO2 and 95% air at 37 °C. The culture medium (DMEM) was supplemented with 10% (v/v) fetal bovine serum, 1% nonessential amino acids, 1% penicillin, and streptomycin. The medium was changed every 2–3 days. When the cell monolayer reached 80–90% confluence, the cells were detached with a solution of trypsin (0.5 mg/mL) and EDTA (0.2 mg/mL) and reseeded at a density of 5×10^4 cells/cm^2.
For the cytotoxicity assay, the cells were incubated in 96-well plates for 24 h. Morroniside dissolved in methanol was diluted with DMEM to terminal concentrations that ranged from 0.1 μM to 200 μM, or CO at 0.63 mg/mL (containing 25 μM morroniside). A negative control group was obtained by the addition of DMEM with methanol at 0.5%(v/v). The cell culture medium treated group was treated only with DMEM. MTT solution was prepared to 1 mg/mL in phosphate-buffered saline and filtered through a 0.2 μm filter. Then, 20 μL of MTT was added into each well. Cells were incubated for 4 h at 37 °C with 5% CO2, 95% air and 100% humidity. After 4 h, the MTT solution was removed and replaced with 150 μL of DMSO. The plate was further incubated for 5 min at room temperature (20 °C), and the optical density of the wells was measured using a plate reader at a wavelength of 490 nm.

COC(=O)C1=CO[C@@H](O[C@@H]2O[C@H](CO)[C@@H](O)[C@H](O)[C@H]2O)[C@@H]2[C@H](C)O[C@@H](O)C[C@H]12 [morroniside, Morroniside]
absolute oral bioavailability [1]: 3.6–7.0%
Papp A→B at 180 min, 5 μM ([2]; Caco-2, AP side pH 6.0, BL side pH 7.4, 5μM morroniside, 37 °C, n = 3, read-out: PappAB): 0.55 ± 0.07 ×10⁻⁶ cm/s
Papp A→B at 180 min, 100 μM ([2]; Caco-2, AP side pH 6.0, BL side pH 7.4, 100μM morroniside, 37 °C, n = 3, read-out: PappAB): 0.62 ± 0.1 ×10⁻⁶ cm/s
Papp A→B at 180 min, 5 μM ([2]; Caco-2, pH 7.4, 5 μM morroniside, AP to BL, over 3 h, read-out: Papp (AP to BL)): 2.66 ×10⁻⁶ cm/s
Papp A→B at 180 min, 25 μM ([2]; Caco-2, pH 7.4, 25 μM morroniside, AP to BL, pH 7.4, 37 °C, n = 3, read-out: PappAB AP-BL): 1.83 ± 0.65 ×10⁻⁶ cm/s
Papp A→B at 180 min, 100 μM ([2]; Caco-2, pH 7.4, 100 μM morroniside, AP to BL, over 3 h, read-out: Papp (AP to BL)): 1.59 ×10⁻⁶ cm/s
Papp A→B at 180 min, 5 μM ([2]; Caco-2, pH 7.4, AP side pH 7.4, 5μM morroniside, 37 °C, n = 3, read-out: PappAB): 1.88 ± 0.49 ×10⁻⁶ cm/s
Papp A→B at 180 min, 25 μM ([2]; Caco-2, pH 7.4, AP side pH 7.4, 25μM morroniside, 37 °C, n = 3, read-out: PappAB): 1.92 ± 0.52 ×10⁻⁶ cm/s
Papp A→B at 180 min ([2]; Caco-2, pH 7.4, range over 5, 25 and 100 μM, AP-to-BL, read-out: apparent permeability coefficient (Papp) AP-to-BL): 1.59 to 2.66 ×10⁻⁶ cm/s
Papp B→A at 180 min, 5 μM ([2]; Caco-2, pH 7.4, 5 μM morroniside, BL to AP, over 3 h): 4.1 ×10⁻⁶ cm/s
Papp B→A at 180 min, 100 μM ([2]; Caco-2, pH 7.4, 100 μM morroniside, BL to AP, over 3 h): 2.67 ×10⁻⁶ cm/s
Papp B→A at 180 min ([2]; Caco-2, pH 7.4, range over 5, 25 and 100 μM, BL-to-AP, read-out: apparent permeability coefficient (Papp) BL-to-AP): 2.67 to 4.1 ×10⁻⁶ cm/s
Papp B→A at 180 min, 25 μM ([2]; Caco-2, 25 μM morroniside, BL to AP, pH 7.4, 37 °C, n = 3, read-out: PappAB BL-AP): 2.92 ± 0.63 ×10⁻⁶ cm/s
PappAB AP-BL (Caco-2 cell monolayers; 5 μM morroniside): 2.66±0.60 ×10^-6cm/s
PappAB BL-AP (Caco-2 cell monolayers; 5 μM morroniside): 4.10±0.86 ×10^-6cm/s
PappAB AP-BL (Caco-2 cell monolayers; 100 μM morroniside): 1.59±0.41 ×10^-6cm/s
PappAB BL-AP (Caco-2 cell monolayers; 100 μM morroniside): 2.67±0.48 ×10^-6cm/s
PappAB (Caco-2 cell monolayers; AP side pH 6.0, BL side pH 7.4, 25μM morroniside): 0.61±0.15 ×10^-6cm/s
PappAB (Caco-2 cell monolayers; AP side pH 7.4, 100μM morroniside): 1.86±0.33 ×10^-6cm/s
intestinal absorption assessed from Papp level (Caco-2 cell monolayers; Papp values at the level of 10^−6, Caco-2 transwell): poor intestinal absorption
PappAB at pH 7.4 compared with pH 6.0 (Caco-2 cell monolayers; three concentrations (5, 25, 100 μM), p<0.05): significantly higher
efflux ratio at 180 min, 25 μM (MRP2; Caco-2, pH 7.4, with indomethacin 200 μM, with indomethacin 200 μM (MRP2 inhibitor), read-out: Efflux ratio P): 0.26
Papp A→B at 180 min, 25 μM (MRP2; Caco-2, pH 7.4, AP to BL, with indomethacin 200 μM, read-out: PappAB (mean)): 12.8 ×10⁻⁶ cm/s
Papp B→A at 180 min, 25 μM (MRP2; Caco-2, pH 7.4, BL to AP, with indomethacin 200 μM, read-out: PappBA (mean)): 3.3 ×10⁻⁶ cm/s
efflux ratio at 180 min, 25 μM ([3]; Caco-2, pH 7.4, 25 μM morroniside, Control (no inhibitor)): 1.61
efflux ratio at 180 min ([3]; Caco-2, pH 7.4, Control (no inhibitor), influx transporter experiment, read-out: P (efflux ratio PappBA/PappAB)): 1.6
efflux ratio at 180 min, 25 μM ([3]; Caco-2, pH 7.4, morroniside given as CO 0.63 mg/mL (containing 25 μM morroniside)): 0.49
Papp B→A at 180 min ([3]; Caco-2, Control (no inhibitor), influx transporter experiment, pH 7.4, 37 °C): 3.06 ± 0.6 ×10⁻⁶ cm/s
Survival Rates (%, mean) (Caco-2 cells; 0.1 μM): 105.12%
Survival Rates (%, mean) (Caco-2 cells; 1 μM): 108.33%
Survival Rates (%, mean) (Caco-2 cells; 5 μM): 101.62%
Survival Rates (%, mean) (Caco-2 cells; 10 μM): 102.41%
Survival Rates (%, mean) (Caco-2 cells; 50 μM): 95.21%
Survival Rates (%, mean) (Caco-2 cells; 100 μM): 91.77%
Survival Rates (%, mean) (Caco-2 cells; 200 μM): 90.72%
reduction of viability of Caco-2 cells (Caco-2 cells; highest concentration (200 μM)): 8%
cytotoxicity toward Caco-2 cells (in words) (Caco-2 cells; morroniside 0.1 to 200 μM): nontoxic
